# Measured values: publication doi:10.1101/2020.01.16.909325v1 (biorxiv, 2020)
# Target: HTR4 (Homo sapiens, UniProt Q13639)
# Conditions: agonist; pH 7.0, 30 °C
# Chain of HTR4 (Q13639 whole entry): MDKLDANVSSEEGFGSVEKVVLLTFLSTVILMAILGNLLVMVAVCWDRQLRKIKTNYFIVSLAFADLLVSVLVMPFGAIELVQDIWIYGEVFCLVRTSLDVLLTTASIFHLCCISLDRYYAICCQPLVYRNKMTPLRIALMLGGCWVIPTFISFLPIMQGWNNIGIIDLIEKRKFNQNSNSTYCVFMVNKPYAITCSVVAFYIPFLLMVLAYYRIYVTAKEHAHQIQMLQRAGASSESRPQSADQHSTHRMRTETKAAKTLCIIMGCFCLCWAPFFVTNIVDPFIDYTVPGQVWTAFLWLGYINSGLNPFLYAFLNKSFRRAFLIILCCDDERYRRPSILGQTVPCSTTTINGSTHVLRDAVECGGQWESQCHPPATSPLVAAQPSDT
smiles,measurement,value
NCCc1c[nH]c2ccccc12 [tryptamine],EC50,tryptamine agonism of HTR4 and ADRA2B
